Measured values reported in ChEMBL document CHEMBL1255373, “In vitro antibacterial activity of CE-156811, a novel analog derived from hygromycin A” (2008).
In brackets after ≈: the same amount, converted by molar mass.

Assays:
Type in all cases: functional
Citrobacter koseri = experiment: Antibacterial activity against Citrobacter diversus clinical isolate by broth microdilution method
Citrobacter freundii = experiment: Antibacterial activity against Citrobacter freundii clinical isolate by broth microdilution method
Klebsiella aerogenes = experiment: Antibacterial activity against Enterobacter aerogenes clinical isolate by broth microdilution method
Enterobacter cloacae = experiment: Antibacterial activity against Enterobacter cloacae clinical isolate by broth microdilution method
Escherichia coli = experiment: Antibacterial activity against Escherichia coli clinical isolate by broth microdilution method
Klebsiella oxytoca = experiment: Antibacterial activity against Klebsiella oxytoca clinical isolate by broth microdilution method
Klebsiella pneumoniae [1] = experiment: Antibacterial activity against Klebsiella pneumoniae clinical isolate by broth microdilution method
Klebsiella pneumoniae [2] = experiment: Antibacterial activity against extended-spectrum beta-lactamase producing Klebsiella pneumoniae clinical isolate by broth microdilution method
Serratia marcescens = experiment: Antibacterial activity against Serratia marcescens clinical isolate by broth microdilution method
Proteus mirabilis = experiment: Antibacterial activity against Proteus mirabilis clinical isolate by broth microdilution method
Proteus vulgaris = experiment: Antibacterial activity against Proteus vulgaris clinical isolate by broth microdilution method
Morganella morganii = experiment: Antibacterial activity against Morganella morganii clinical isolate by broth microdilution method
Providencia rettgeri = experiment: Antibacterial activity against Providencia rettgeri clinical isolate by broth microdilution method
Salmonella sp. = experiment: Antibacterial activity against Salmonella sp. by broth microdilution method
Shigella sp. = experiment: Antibacterial activity against Shigella sp. by broth microdilution method
Pseudomonas aeruginosa = experiment: Antibacterial activity against Pseudomonas aeruginosa clinical isolate by broth microdilution method
Burkholderia cepacia = experiment: Antibacterial activity against Burkholderia cepacia clinical isolate by broth microdilution method
Acinetobacter sp. = experiment: Antibacterial activity against Acinetobacter sp. by broth microdilution method
[3] = tested on: Stenotrophomonas maltophilia; experiment: Antibacterial activity against Stenotrophomonas maltophilia clinical isolate by broth microdilution method

Question: Which MIC50 (Citrobacter koseri) does the source give for `CC(C)(O/N=C(\C(=O)N[C@@H]1C(=O)N2C(C(=O)[O-])=C(C[n+]3ccccc3)CS[C@H]12)c1csc(N)n1)C(=O)O` [CEFTAZIDIME] here?
Answer: Its MIC50 is 0.5 µg/mL (≈ 0.915 µM).

Question: And the MIC90 (Citrobacter koseri)?
Answer: The MIC90 was over 64 µg/mL.

Question: And the MIC50 (Citrobacter freundii)?
Answer: The MIC50 was 0.5 µg/mL (≈ 0.915 µM).

Question: What about the MIC90 (Citrobacter freundii) of the same compound?
Answer: Its MIC90 is over 64 µg/mL.

Question: And the MIC50 (Klebsiella aerogenes)?
Answer: The MIC50 was 0.5 µg/mL (≈ 0.915 µM).

Question: What about the MIC90 (Klebsiella aerogenes) of the same compound?
Answer: Its MIC90 is over 64 µg/mL.

Question: What about the MIC50 (Enterobacter cloacae) of the same compound?
Answer: Its MIC50 is 0.5 µg/mL (≈ 0.915 µM).

Question: What about the MIC90 (Enterobacter cloacae) of the same compound?
Answer: The MIC90 was over 64 µg/mL.

Question: And the MIC50 (Escherichia coli)?
Answer: Its MIC50 is 0.5 µg/mL (≈ 0.915 µM).

Question: What about the MIC90 (Escherichia coli) of the same compound?
Answer: Its MIC90 is over 64 µg/mL.

Question: And the MIC50 (Klebsiella oxytoca)?
Answer: The MIC50 was 0.5 µg/mL (≈ 0.915 µM).

Question: What about the MIC90 (Klebsiella oxytoca) of the same compound?
Answer: The MIC90 was over 64 µg/mL.

Question: And the MIC50 (Klebsiella pneumoniae [1])?
Answer: The MIC50 was 0.5 µg/mL (≈ 0.915 µM).

Question: And the MIC90 (Klebsiella pneumoniae [1])?
Answer: The MIC90 was over 64 µg/mL.

Question: What about the MIC50 (Klebsiella pneumoniae [2]) of the same compound?
Answer: The MIC50 was 0.5 µg/mL (≈ 0.915 µM).

Question: What about the MIC90 (Klebsiella pneumoniae [2]) of the same compound?
Answer: Its MIC90 is over 64 µg/mL.

Question: What about the MIC50 (Serratia marcescens) of the same compound?
Answer: The MIC50 was 0.5 µg/mL (≈ 0.915 µM).

Question: And the MIC90 (Serratia marcescens)?
Answer: Its MIC90 is over 64 µg/mL.

Question: What about the MIC50 (Proteus mirabilis) of the same compound?
Answer: Its MIC50 is 0.5 µg/mL (≈ 0.915 µM).

Question: And the MIC90 (Proteus mirabilis)?
Answer: Its MIC90 is over 64 µg/mL.

Question: What about the MIC50 (Proteus vulgaris) of the same compound?
Answer: The MIC50 was 0.5 µg/mL (≈ 0.915 µM).

Question: And the MIC90 (Proteus vulgaris)?
Answer: The MIC90 was over 64 µg/mL.

Question: And the MIC50 (Morganella morganii)?
Answer: Its MIC50 is 0.5 µg/mL (≈ 0.915 µM).

Question: And the MIC90 (Morganella morganii)?
Answer: The MIC90 was over 64 µg/mL.

Question: What about the MIC50 (Providencia rettgeri) of the same compound?
Answer: The MIC50 was 0.5 µg/mL (≈ 0.915 µM).

Question: What about the MIC90 (Providencia rettgeri) of the same compound?
Answer: The MIC90 was over 64 µg/mL.

Question: And the MIC50 (Salmonella sp.)?
Answer: Its MIC50 is 0.5 µg/mL (≈ 0.915 µM).

Question: And the MIC90 (Salmonella sp.)?
Answer: Its MIC90 is over 64 µg/mL.

Question: What about the MIC50 (Shigella sp.) of the same compound?
Answer: The MIC50 was 0.5 µg/mL (≈ 0.915 µM).

Question: And the MIC90 (Shigella sp.)?
Answer: Its MIC90 is over 64 µg/mL.

Question: What about the MIC50 (Pseudomonas aeruginosa) of the same compound?
Answer: Its MIC50 is 16 µg/mL (≈ 29.3 µM).

Question: What about the MIC90 (Pseudomonas aeruginosa) of the same compound?
Answer: Its MIC90 is over 64 µg/mL.

Question: What about the MIC50 (Burkholderia cepacia) of the same compound?
Answer: The MIC50 was 16 µg/mL (≈ 29.3 µM).

Question: And the MIC90 (Burkholderia cepacia)?
Answer: The MIC90 was over 64 µg/mL.

Question: What about the MIC50 (Acinetobacter sp.) of the same compound?
Answer: Its MIC50 is 16 µg/mL (≈ 29.3 µM).

Question: And the MIC90 (Acinetobacter sp.)?
Answer: The MIC90 was over 64 µg/mL.

Question: And the MIC50 [3]?
Answer: The MIC50 was 16 µg/mL (≈ 29.3 µM).

Question: What about the MIC90 [3] of the same compound?
Answer: Its MIC90 is over 64 µg/mL.
